In patent US10947291B2, “Treating type I and type II diabetes” (Mayo Foundation for Medical Education and Research, priority 2013, dated 2021):

Tested on: female mice (C57/BL6) with streptozocin-induced hyperglycemia
Assay: AAV1.CMV.insulin.RSV.icasp9 and AP20187 in streptozocin-treated C57/BL6 mice, blood glucose
Type: in vivo
Conditions: IP 10 mg/kg, five consecutive days starting on day 14 after AAV1.CMV.insulin.RSV.icasp9 (FIG. 6)
Description: FIG. 6 is a graph plotting glucose levels for three groups of mice. One group was treated intraperitoneally (IP) with streptozocin (STZ) for two weeks to develop hyperglycemia. A second group was treated intraperitoneally (IP) with streptozocin (STZ) for two weeks to develop hyperglycemia and then administered AAV1.CMV.insulin.RSV.icasp9 (AAV1) intramuscularly (IM) on day zero. The third group was treated intraperitoneally (IP) with streptozocin (STZ) for two weeks to develop hyperglycemia, was then administered AAV1.CMV.insulin.RSV.icasp9 (AAV1) intramuscularly (IM) on day zero followed by intraperitoneal (IP) administration of AP20187 (B/B) on days 14, 15, 16, 17, and 18.
To induce diabetes in mice, three groups of female mice (C57/BL6) were given, on 5 consecutive days, an intraperitoneal (IP) injection of Streptozocin (STZ; Sigma cat #50130) at 45 mg/kg body weight dissolved in 0.1 mol/L citrate buffer (pH 4.5) immediately before administration. Two weeks later, when hyperglycemia developed, two groups of mice were injected intramuscularly (IM) with 1×10E11 particles/mice of AAV1.CMV.insulin.RSV.icasp9. Blood glucose levels were determined using a Contour blood glucose test strips (Bayer HealthCare LLC). 14 days later, one group of mice was injected via IP injection with 10 mg/kg of AP20187 (B/B homodimerizer; Clontech, Cat. No. AP20187) for 5 consecutive days.

CC[C@H](C(=O)N1CCCCC1C(=O)O[C@H](CCc1ccc(OC)c(OC)c1)c1cccc(OCC(=O)NCC(CNC(=O)COc2cccc([C@@H](CCc3ccc(OC)c(OC)c3)OC(=O)[C@@H]3CCCCN3C(=O)[C@@H](CC)c3cc(OC)c(OC)c(OC)c3)c2)CN(C)C)c1)c1cc(OC)c(OC)c(OC)c1 (stereo partly shown) [AP20187]
glucose levels after induction of the iCasp9 death switch: steady increase in glucose levels
